Test results: patent publication US20230102192A1, “THERAPIES FOR THE TREATMENT OF DISEASES AND DISORDERS ASSOCIATED WITH ABNORMAL EXPRESSION OF A NEURAL-ASSOCIATED GENE” (The Regents of the University of California, priority 2020, published 2023)
“Also recorded” adds a separate entry of the source.

What was measured:
Assay type in all cases: cell-based, human
[1] = tested on: MECP2-KO cortical organoids; experiment: RNA sequencing and gene ontology analysis of cortical organoids; conditions: 1 μM for one month, two-month old organoids
Method: RNA-seq analyses. RNA-seq analyses were performed as described in Marchetto et al. (Nature 504:525-529 (2013)). Briefly, RNeasy Mini kit (Qiagen) isolated RNA for library preparation (Illumina TruSeq RNA Sample Preparation Kit; San Diego, Calif., USA) and sequencing (Illumina HiSeq2000, 50 bp paired-end reads, 50 million high-quality sequencing fragments per sample on average).
Gene ontology (GO) analysis. RNA-seq enrichment was with plugins WebGestalt and Cytoscape and considered only statistically significant categories (P<0.05). Genes evaluated for differential expression set the background for GO annotation and enrichment analysis.
Nefiracetam and PHA 543613 rescue network activity in MECP2-KO cortical organoids. The therapeutic efficacy of Nefiracetam and PHA 543613 was evaluated with cortical organoids, a complex, three-dimensional human neurodevelopmental model that closely recapitulates aspects of human fetal neurodevelopment. MECP2-KO and control cortical organoids were generated, as described above (see FIG. 9A, and FIG. 10A-B). One-month old cortical organoids were treated for another month with either Nefiracetam (1 μM) or PHA 543613 (1 μM), and experiments and analyses were performed using organoids at 2-3 months of age. […]

[2] = tested on: MECP2-mosaic (CTR/KO) neurospheres; experiment: Neurosphere size (diameter); conditions: 8-week MECP2-mosaic neurospheres, P=0.79
From the text: Nefiracetam and PHA 543613 increase activity in MECP2-mosaic neurospheres. Because MECP2 resides on the X chromosome, random X-inactivation in females can produce a genetic pattern of mosaicism, with consequent phenotypic gradation, in which some cells express the normal allele while others are mutant. Therefore, as the next stage to evaluate the two drug candidates, a neurosphere model of MECP2 mosaicism was developed to mimic the female RTT brain by combining different proportions of control and MECP2-KO NPCs (see FIG. 7A-C). […] Calcium transient frequency in MECP2-mosaic neurospheres was increased by treatment with Nefiracetam in isolation (1 μM, P<0.05) and when combined with PHA 543613 (10 μM, P<0.001; FIG. 7H), but calcium transient amplitude was unaffected by either compound (P=0.255; FIG. 7I). To investigate the impact of the drug treatments on the electrophysiological properties of the MECP2-mosaic model, neurospheres treated with 1 μM Nefiracetam, 1 μM PHA 543613, or both Nefiracetam and PHA 543613 were plated to perform MEA analysis. […] Because each drug conferred a benefit to MECP2-mosaic neurospheres, both Nefiracetam and PHA 543613 were retained for further evaluation in a more complex human neurodevelopmental model.

[3] = tested on: MECP2-mosaic (CTR/KO) neurospheres; experiment: MEA analysis of neurospheres; conditions: 1 μM, after 5 weeks of treatment, vs CTR/KO untreated
Method: Multi-electrode array (MEA) analysis. MEA analyses of neurons and cortical organoids were performed as described in Nageshappa et al. (Mol. Psychiatry 21:178-188 (2016)). Briefly, 3D neurosphere cultures of NPC derivation were plated on dual-chamber MEA; spontaneous spike activity was evaluated with the MED64 System (Panasonic). Glutamatergic (AP5, NBQX), GABAergic (Gabazine), and gap channel (Mefloquine) antagonism were used to check neuronal activity. After measurement, neurons were immunostained to check morphology and density. Recorded spikes were analyzed with the software Neuroexplorer (Nex Technologies, Madison, Ala., USA). For cortical organoids, 1-month organoids were plated on MEA plates and recordings were collected with a Maestro MEA system and AxIS Software Spontaneous Neural Configuration (Axion Biosystems, Atlanta, Ga., USA) using a customized script. The plate rested in the machine for three minutes followed by four minutes of recording. Axion Biosystems' Neural Metrics Tool classified electrodes with at least 5 spikes/min as active. Bursts were identified using an inter-spike interval (ISI) threshold requiring a 5-spike minimum and 100 ms maximum ISI. […] The synchrony index was calculated using a 20 ms cross-correlogram synchrony window was used to determine the synchrony index. […]

| Compound | expression of genes in pathways relevant to synaptic function [1] | neurosphere diameter [2] | MEA overall spike count / spike frequency [3] |
| --- | --- | --- | --- |
| Cc1cccc(C)c1NC(=O)CN1CCCC1=O [Nefiracetam, nefiracetam] | promoted expression; also recorded: upregulated genetic expression | did not alter | increased |
| O=C(N[C@H]1CN2CCC1CC2)c1cc2ccoc2cn1 [PHA 543613, N-[(3R)-1-azabicyclo[2.2.2]oct-3-yl]furo[2,3-c]pyridine-5-carboxamide] | promoted expression; also recorded: upregulated expression | did not alter | increased |
